≈ marks a conversion by molar mass, not a printed value. Read-outs that look alike come from different tables or passages of the source.
Tests used:
Vaccinia = type: cell-based, vaccinia virus; conditions: for minimum inhibitory concentration against vaccinia virus: text of Examples 3(A) and 3(B), hydrochloride
P388 murine leukemia = test: Antileukemic properties, ID50 vs P388 leukemia; type: cell-based; conditions: 25,000 cells per well; 72 hours incubation at 37° C.
Procedure: The compounds of the following Table 3 were prepared in accordance with processes of this invention.

L1210 murine Leukemia = test: Anticancer properties, 50% cell kill (ID50); type: cell-based
RAJI human B lymphoblast = test: Anticancer properties, 50% cell kill (ID50); type: cell-based
Description: RAJI human B lymphoblast
FIG. 1 relates to such acitivity for the cell line MOLT/4F, human T lymphoblast. FIG. 2 related to the tumor cell lines of Raji, human B lymphoblast; all values being expressed in ID50 values in arbitrary units. […] The general formula for the compounds of this invention as tested in FIGS. 1 and 2 are of formula I, wherein A is represented by: [drawing 14] m is 1; n is 1 and Het is pyrrole, R is represented by the formula COk --(CH2)l --CO where l is equal to 0, 1, 2, 3, 4, 5, 6, 7 or 8 and k is equal to 0 or 1.

[1] = test system: FM3A murine mammary tumor; test: Anticancer properties, 50% cell kill (ID50); type: cell-based
[2] = test system: primary rabbit kidney cell cultures; test: Minimal cytotoxic concentration in the antiviral test
Procedure: The antiviral properties of the compounds listed in Table 1 were tested to determine the minimum inhibitory concentration to achieve a 50% kill of the viruses in primary rabbit kidney cell cultures.

Herpes simplex-1 = test: Antiviral test, minimum inhibitory concentration in primary rabbit kidney cell cultures; type: cell-based; conditions: 50% kill of the viruses in primary rabbit kidney cell cultures
Herpes-2 = test: as above; type: cell-based; conditions: 50% kill of the viruses in primary rabbit kidney cell cultures
[3] = test system: MOLT/4F human T lymphoblast; test: Anticancer properties, 50% cell kill (ID50); type: cell-based
[4] = 50% kill of the viruses in primary rabbit kidney cell cultures

SMILES	ID50 vs P388 leukemia (P388 murine leukemia)	Minimum Inhibitory Conc. L1210 (ID50) (L1210 murine Leukemia)	Minimum Inhibitory Conc. RAJI (ID50) (RAJI human B lymphoblast)	Minimum Inhibitory Conc. FM3A (ID50) [1]	Minimum Inhibitory Conc. Herpes simplex-1 (Herpes simplex-1)	Minimum Inhibitory Conc. Herpes-2 (Herpes-2)	Minimum Inhibitory Conc. Vaccinia (Vaccinia; [4])	Minimal Cytotoxic Conc. [2]	also measured
Cl.Cn1cc(NC(=O)c2cc(NC(=O)C[N+](C)(C)C)cn2C)cc1C(=O)NCCC(=N)N.[Cl-] [3(B), 1-Methyl-4-(1-methyl-4-trimethylammonium-acetamidopyrrole-2-carboxamido)pyrrole-2-carboxamidopropionamidine chloride hydrochloride]									minimum inhibitory concentration against vaccinia virus (Vaccinia): 300 µg/mL
Cn1cc(NC(=O)c2cc(NC(=O)c3cc(NC=O)cn3C)cn2C)cc1C(=O)NCCC(=N)N [Distamycin, distamycin, reference compound]	20 µg/mL (≈ 41.5 µM)	27.1 ± 4.7 µg/mL	23.7 ± 3.69 µg/mL	30.6 ± 2.4 µg/mL	70 µg/mL	70 µg/mL			Minimum Inhibitory Conc. Vaccinia (Vaccinia): 0.2 µg/mL; Minimal Cytotoxic Conc. ([2]; primary rabbit kidney cell cultures): 200 μg/m
Cl.Cn1cc(NC(=O)c2cc(NC(=O)C[N+](C)(C)C)cn2C)cc1C(=O)NCCC(=N)N.[Cl-] [Example 3(A), 1-Methyl-4-(1-methyl-4-trimethylammonium-acetamidopyrrole-2-carboxamido)pyrrole-2-carboxamidopropionamidine chloride hydrochloride]									minimum inhibitory concentration against vaccinia virus (Vaccinia): 20 µg/mL
Cl.Cl.Cn1cc(NC(=O)c2cc(NC(=O)CCCCCCC(=O)Nc3cc(C(=O)Nc4cc(C(=O)NCCC(=N)N)n(C)c4)n(C)c3)cn2C)cc1C(=O)NCCC(=N)N [m=1 n=1 R = CO(CH2)6 CO]	0.70 µg/mL				10 µg/mL	10 µg/mL	0.2 µg/mL	≥ 10 μg/m	
Cl.Cl.Cn1cc(NC(=O)c2cc(NC(=O)CCCCCCCC(=O)Nc3cc(C(=O)Nc4cc(C(=O)NCCC(=N)N)n(C)c4)n(C)c3)cn2C)cc1C(=O)NCCC(=N)N [m=1 n=1 R = CO(CH2)7 CO]	0.75 µg/mL				40 µg/mL	40 µg/mL	0.2 µg/mL	≥ 100 μg/m	
Cl.Cl.Cn1cc(NC(=O)c2cc(NC(=O)CC(=O)Nc3cc(C(=O)Nc4cc(C(=O)NCCC(=N)N)n(C)c4)n(C)c3)cn2C)cc1C(=O)NCCC(=N)N [m=1 n=1 R = COCH2CO]	0.91 µg/mL	28.5 ± 9.7 µg/mL	3.39 ± 0.69 µg/mL	5.87 ± 2.23 µg/mL					Minimum Inhibitory Conc. MOLT/4F (ID50) [3]: 2.85 ± 0.6 µg/mL
Cl.Cl.Cn1cc(NC(=O)c2cc(NC(=O)/C=C/C(=O)Nc3cc(C(=O)Nc4cc(C(=O)NCCC(=N)N)n(C)c4)n(C)c3)cn2C)cc1C(=O)NCCC(=N)N [m=1 n=1 R = COCH CHCO (trans)]						10 µg/mL	2 µg/mL	≥ 40 μg/m	
Cl.Cl.Cn1cc(NC(=O)c2cc(NC(=O)CCCCCCCCC(=O)Nc3cc(C(=O)Nc4cc(C(=O)NCCC(=N)N)n(C)c4)n(C)c3)cn2C)cc1C(=O)NCCC(=N)N [m=1 n=1 R = CO[CH2]8CO]	0.98 µg/mL	4.21 ± 1.52 µg/mL	3.34 ± 0.44 µg/mL	22.1 ± 11.1 µg/mL					Minimum Inhibitory Conc. MOLT/4F (ID50) [3]: 2.97 ± 0.4 µg/mL
Cl.Cl.Cn1cc(NC(=O)c2cc(NC(=O)Nc3cc(C(=O)Nc4cc(C(=O)NCCC(=N)N)n(C)c4)n(C)c3)cn2C)cc1C(=O)NCCC(=N)N [m=1 n=1 l=0 k=0]	8.0 µg/mL								
Cl.Cl.Cn1cc(NC(=O)c2cc(NC(=O)CCCC(=O)Nc3cc(C(=O)Nc4cc(C(=O)NCCC(=N)N)n(C)c4)n(C)c3)cn2C)cc1C(=O)NCCC(=N)N [m=1 n=1 l=3 k=1]	6.4 µg/mL								
Cl.Cl.Cn1cc(NC(=O)c2cc(NC(=O)CCCCC(=O)Nc3cc(C(=O)Nc4cc(C(=O)NCCC(=N)N)n(C)c4)n(C)c3)cn2C)cc1C(=O)NCCC(=N)N [m=1 n=1 l=4 k=1]	1.05 µg/mL								
Cl.Cl.Cn1cc(NC(=O)c2cc(NC(=O)CCCCCC(=O)Nc3cc(C(=O)Nc4cc(C(=O)NCCC(=N)N)n(C)c4)n(C)c3)cn2C)cc1C(=O)NCCC(=N)N [m=1 n=1 l=5 k=1]	4.4 µg/mL								
Cl.Cl.Cn1cc(NC(=O)c2cc(NC(=O)c3cc(NC(=O)CCC(=O)Nc4cc(C(=O)Nc5cc(C(=O)Nc6cc(C(=O)NCCC(=N)N)n(C)c6)n(C)c5)n(C)c4)cn3C)cn2C)cc1C(=O)NCCC(=N)N [m=1 n=2 R = CO(CH2)2 CO]		> 100 µg/mL	4.14 ± 8.4 µg/mL	4.29 ± 1.12 µg/mL	4 µg/mL	4 µg/mL	4 µg/mL	≥ 40 μg/m	Minimum Inhibitory Conc. MOLT/4F (ID50) [3]: 100 µg/mL

— patent publication US4912199A, “Oligopeptide anticancer and antiviral agents” (The Governors of the University of Alberta, priority 1987, dated 1990)
